The test system of one experiment is laccase. Briefly: Chicago Blue assay: mediator-enhanced laccase-catalyzed bleaching of Chicago Blue in solution. It counts as biochemical, Aspergillus. The settings on record: decrease in absorbance of Chicago Blue at 610 nm after 3 min, mediator (0.1 umole/ml); for ΔmA610 (3 min) at pH 5.5: pH 5.5, laccase; for ΔmA610 (3 min) at pH 7.0: pH 7.0, laccase. As to the method: In this example, the pro-oxidants and pro-degradants were tested individually as mediators to enhance laccase-catalyzed bleaching of Chicago Blue in solution. The Chicago Blue Dye, also known as Direct Blue 1 or DB1, is a commonly used assay for the oxidative efficiency of laccase. The Chicago Blue Dye is fully described by Schneider et al. in U.S. Pat. No. 5,885,304, which is hereby incorporated by reference.
Each of the compounds (i.e., potential mediators) was dissolved in water, or in ethanol if the potential mediator was not water soluble, and then mixed with a phosphate buffer and a Chicago Blue solution. A solution of a laccase was added to make up 1 ml of the final solution, containing […] mediator, 20 mM buffer at pH 5.5 or 7.0, 0.1-1% laccase (v/v) and Chicago Blue solution, with absorbance at A610 nm between 0.6 to 0.8. The change in the absorbance at A610 nm was measured immediately using a UV-VIS spectrophotometer (UV-1201, Shimadzu Scientific Instruments) after the enzyme was added. The decrease in absorbance was recorded at 30-second intervals for 5 minutes and was used to estimate the efficiency of the mediator.

The next experiment has as its system laccase (NS51003). Briefly: Pulp bleaching with laccase and mediators, delignification measured as change in Kappa number (TAPPI T236 cm-85). Also noted: species or system Aspergillus. The protocol: Delignification of the pulp was measured as the change in Kappa number according to TAPPI method T236 cm-85. Briefly, a known mass of paper pulp (containing lignin) was reacted with an excess of potassium permanganate in acid solution for a specified period of time to oxidize the lignin. After the reaction, the residual permanganate was determined by titration. The Kappa number was defined as the volume (ml) of 0.1N potassium permanganate consumed by 1 g of moisture-free pulp in 0.5N sulfuric acid after a ten-minute reaction time at 25° C. under conditions such that one-half of the permanganate remains unreacted. A linear relationship with the lignin content of the pulp and the measurement of the Kappa number has been done on samples as low as 300 mg of pulp.
A softwood Kraft pulp, Kappa number 31.0, was treated with a laccase (NS51003) under the following conditions:
The dried pulp was added to 80 ml of 50 mM phosphate, pH 5.5, and disintegrated in a blender. The pulp was then transferred to a 500-ml conical flask and the blender was washed with 20 ml of the same buffer. The washed buffer and the pulp were combined. The mediator was added at 1-4% (w/w, based on the dry pulp) followed by the addition of the laccase. The pH of the pulp mixture was adjusted to 5.5 if needed. […]
The delignification of the pulp was measured as the change in the Kappa number according to TAPPI method T236 cm-85.

Consider `O=C1O[C@H]([C@@H](O)CO)C(O)=C1O` [Ascorbic acid, ascorbic acid], for which, in the experiment with laccase, the “ΔmA610 (3 min) at pH 5.5” value was determined as 6 and the “ΔmA610 (3 min) at pH 7.0” value was 2. `On1nnc2ccccc21` [HBT, 1-hydroxybenzotriazole, reference compound]: the “Kappa number reduction (in words)” value in the experiment on laccase (NS51003) (0.1 ml of the 51003 laccase with the mediator) is reported as “modest Kappa number reduction”.

Consider `O=C(O)c1cccnc1` [Nicotinic acid, nicotinic acid], for which, in the experiment with laccase, the “ΔmA610 (3 min) at pH 5.5” value was 0 and the “ΔmA610 (3 min) at pH 7.0” value is recorded as 0.

As for `O=C(O)c1ccccc1O` [Salicylic acid, salicylic acid], the “ΔmA610 (3 min) at pH 5.5” value in the experiment with laccase was found to be 11.

For `NC(N)=O` [Urea, urea], the “activity in enhancing bleaching (in words)” value in the experiment with laccase (NS51003) (pulp bleaching with laccase, Examples 2-6) is “barely active”. Moreover, in the experiment on laccase, the “ΔmA610 (3 min) at pH 5.5” value was 1 and the “ΔmA610 (3 min) at pH 7.0” value is 0.

(Values after patent publication US20030094251A1, “Enhancing laccase activity using pro-oxidants and pro-degradants” (priority 2001, published 2003).)
